The numbers were not newly measured in patent US5320960A, “Method of preparing solution enriched in xylanase using low molecular weight alcohol, organic salt and inorganic salt” (Genencor International, Inc., priority 1992, dated 1994), which cites them from elsewhere.

pKi: −log10 of the molar value.

As usually defined, the pKi is the Ki on a negative log10 scale, so that one unit is a factor of ten.

The target in this data set is β-Glucosidase (BG) components of fungal cellulase. Particulars: competitive inhibition; read-out: Ki (glucose).

As for `OC[C@H]1OC(O)[C@H](O)[C@@H](O)[C@@H]1O` (stereo partly shown) [glucose], the pKi was around 3.00.
